US7550604B2, “Pyrroloterpenes and use of the same as antimicrobial and anticancer agents” (Nereus Pharmaceuticals, Inc., priority 2004, dated 2009)

Columns and labels:
Assay type in all cases: cell-based
[1] = test system: B16-F10 cells; test: Growth inhibition of murine melanoma B16-F10 cells (resazurin)
Description: B16-F10 (ATCC; CRL-6475) a murine melanoma cell line was maintained in complete Dulbecco's Modification of Eagle's Medium (DMEM) (DMEM supplemented with 10% (v/v) Fetal bovine serum, 2 mM glutamine, 10 mM HEPES and Penicillin/Streptomycin at 100 IU/ml and 100 μg/ml respectively). The cells were cultured in an incubator at 37° C. in 5% CO2 and 95% humidified air. For cell growth inhibition assays, B16-F10 cells were seeded at 1.25×10^3 cells/well in 90 μl complete media into Corning 3904 black-walled, clear-bottom tissue culture plates and the plates were incubated overnight to allow cells to establish and enter log phase growth. Two independent assays were performed using 200 mM or 400 mM stock solutions prepared in 100% DMSO. 10× concentrated serial dilutions of the compound of Formula (V) were prepared in appropriate culture medium. Ten μl volumes of the serial dilutions were added to the test wells in triplicate resulting in final concentrations ranging from 500 μM to 158 nM or 1 mM to 7.81 μM. The plates were returned to the incubator for 48 hours. The final concentration of DMSO was 0.25% in all samples. […] Since living cells metabolize Resazurin, the fluorescence of the reduction product of Resazurin was measured using a Fusion microplate fluorometer (Packard Bioscience) with λex =535 nm and λem=590 nm filters. […]

[2] = test system: HT-29 cells; test: Growth inhibition of human colorectal adenocarcinoma HT-29 cells (resazurin)
Description: HT-29 (ATCC; HTB-38) a human colorectal adenocarcinoma cell line was maintained in complete McCoy's 5A medium (McCoy's 5A medium supplemented with 10% (v/v) Fetal bovine serum, 2 mM glutamine, 10 mM HEPES, 1% (v/v) non-essential amino acids (NEAA), 1 mM sodium pyruvate and Penicillin/Streptomycin at 100 IU/ml and 100 μg/ml respectively). The cells were cultured in an incubator at 37° C. in 5% CO2 and 95% humidified air. For cell growth inhibition assays, HT-29 cells were seeded at 5×10^3 cells/well in 90 μl complete media into Corning 3904 black-walled, clear-bottom tissue culture plates and the plates were incubated overnight to allow cells to establish and enter log phase growth. Two independent assays were performed using 200 mM or 400 mM stock solutions prepared in 100% DMSO. 10× concentrated serial dilutions of the compound of Formula (V) were prepared in appropriate culture medium. Ten μl volumes of the serial dilutions were added to the test wells in triplicate resulting in final concentrations ranging from 500 μM to 158 nM or 1 mM to 7.81 μM. The plates were returned to the incubator for 48 hours. The final concentration of DMSO was 0.25% in all samples. […] Since living cells metabolize Resazurin, the fluorescence of the reduction product of Resazurin was measured using a Fusion microplate fluorometer (Packard Bioscience) with λex =535 nm and λem=[…] filters. […]

[3] = test system: Bacillus cereus 14579; test: Antimicrobial MIC assay (NCCLS M7-A5)
Description: (§1) Minimum inhibitory concentrations (MICs) were determined according to the National Committee for Clinical Laboratory Standards (NCCLS) susceptibility test guideline M7-A5 (Ferraro, M. 2001 Methods for Dilution Antimicrobial Susceptibility Tests for Bacteria that Grow Aerobically; Approved Standard (NCCLS). National Committee for Clinical Laboratory Standards (NCCLS), Villanova, which is incorporated herein by reference in its entirety).

[4] = test system: Escherichia coli imp; test: Antimicrobial MIC assay (NCCLS M7-A5)
Description: as §1

[5] = test system: Candida albicans; test: Antimicrobial MIC assay (NCCLS M7-A5)
Description: as §1

[6] = test system: Staphylococcus aureus - MSSA; test: Antimicrobial MIC assay (NCCLS M7-A5)
Description: as §1

CC(=C/C(=O)c1ccc[nH]1)/C=C/C(O)C1(C)CCC(C(C)(C)O)O1 (stereo not shown) [Formula (V)]
inhibition of growth of B16-F10 tumor cells (in words) ([1]; B16-F10): able to inhibit the growth | EC50 ([1]; Mus musculus, B16-F10, 48 hours drug exposure, resazurin fluorescence, read-out: EC50 against B16-F10 cells): 260 µM | inhibition of growth of HT-29 tumor cells (in words) ([2]; HT-29): able to inhibit the growth | EC50 ([2]; Homo sapiens, HT-29, 48 hours drug exposure, resazurin fluorescence, read-out: EC50 against HT-29 cells): 286 µM | MIC ([3]; Bacillus cereus 14579): 72 mg/L | anti-bacterial activity versus gram positive microorganisms (in words) ([3]; gram positive: Bacillus cereus 14579): possess anti-bacterial activity | MIC [4]: 128 mg/L | MIC [5]: > 128 mg/L | MIC ([6]; Staphylococcus aureus - MSSA): 64 mg/L | anti-bacterial activity versus gram positive microorganisms (in words) ([6]; gram positive: Staphylococcus aureus - MSSA): possess anti-bacterial activity
